Legend:
[1] = system: Cat A+ and Cat A- human primary fibroblasts; assay: Metabolism of acyclic nucleotide phosphonate prodrugs in Cat A+/- fibroblasts; conditions: 10 μM 14C-labeled Compound K, 37° C., 15-240 min
GS-7340 ester hydrolase = molecular target: T1, GS-7340 ester hydrolase (Homo sapiens, UniProt P10619); assay: biochemical
T1 construct: Fresh human PBMCs are obtained from patients undergoing leukophoresis; from tissue; host or cells: human peripheral blood mononuclear cells (PBMC extract, purified by Q15, Butyl Sepharose HIC and Con A chromatography)
T1 sequence (P10619 29-326 limits assumed): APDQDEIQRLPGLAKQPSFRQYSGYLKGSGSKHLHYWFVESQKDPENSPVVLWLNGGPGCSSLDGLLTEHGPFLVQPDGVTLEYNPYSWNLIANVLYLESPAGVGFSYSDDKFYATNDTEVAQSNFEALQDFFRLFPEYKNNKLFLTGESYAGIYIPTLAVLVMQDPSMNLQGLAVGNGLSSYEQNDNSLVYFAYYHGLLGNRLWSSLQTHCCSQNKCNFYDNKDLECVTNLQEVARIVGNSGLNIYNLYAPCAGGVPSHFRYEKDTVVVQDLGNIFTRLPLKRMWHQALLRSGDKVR
T1 sequence (P10619 327-480 limits assumed): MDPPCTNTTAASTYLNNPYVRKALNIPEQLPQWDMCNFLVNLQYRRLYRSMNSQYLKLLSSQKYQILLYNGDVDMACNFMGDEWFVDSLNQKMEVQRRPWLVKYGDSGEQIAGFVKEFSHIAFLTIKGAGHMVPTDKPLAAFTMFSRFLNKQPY

For `C=C(OC(C)C)[C@H](C)N[P@](=O)(CO[C@H](C)Cn1cnc2c(C)ncnc21)Oc1ccccc1` [Compound K], the “concentration of metabolites in Cat A+ control fibroblasts relative to Cat A- (galactosialidosis) fibroblasts” value [1] was 6-9 times.

With `O=c1oc(Cl)c(Cl)c2ccccc12` [3,4-dichloroisocoumarin, 3,4 dichloroisocoumarin] the IC50 (GS-7340 ester hydrolase) was 500 nM.

Reference: patent US7273716B2 (priority 2003, dated 2007)
